Measured values as given in ChEMBL document CHEMBL3351979, “Total Synthesis and Biological Studies of TMC-205 and Analogues as Anticancer Agents and Activators of SV40 Promoter” (ACS Med Chem Lett, 2014).
The source made the active and inactive calls. No cut-off for these calls is given here.

How the values were obtained:
[1] = Antiproliferative activity against human HCT116 cells assessed as growth inhibition after 72 hrs by MTS assay; format: functional; details: HCT-116, 72 h
[2] = Stability of the compound by HPLC analysis; format: physicochemical
HeLa [3] = test: Induction of SV40 promoter-mediated luciferase gene expression in human HeLa cells at 0.01 to 100 uM after 24 hrs by luminescence assay; format: cell-based; details: Betapolyomavirus macacae
HeLa [4] = test: Induction of SV40 promoter-mediated luciferase gene expression in human HeLa cells co-expressing SV40 enhancer at 0.01 to 100 uM after 24 hrs by luminescence assay; format: cell-based; details: Betapolyomavirus macacae
HeLa [5] = test: Growth inhibition of human HeLa cells at 0.01 to 100 uM after 24 hrs; format: cell-based
[6] = target: T1, Luciferin 4-monooxygenase (Luciola lateralis) (UniProt Q01158); test: Inhibition of recombinant firefly luciferase at 0.0001 to 100 uM by […] in presence of varying concentration of D-luciferin; details: Aquatica lateralis
T1 sequence (whole entry): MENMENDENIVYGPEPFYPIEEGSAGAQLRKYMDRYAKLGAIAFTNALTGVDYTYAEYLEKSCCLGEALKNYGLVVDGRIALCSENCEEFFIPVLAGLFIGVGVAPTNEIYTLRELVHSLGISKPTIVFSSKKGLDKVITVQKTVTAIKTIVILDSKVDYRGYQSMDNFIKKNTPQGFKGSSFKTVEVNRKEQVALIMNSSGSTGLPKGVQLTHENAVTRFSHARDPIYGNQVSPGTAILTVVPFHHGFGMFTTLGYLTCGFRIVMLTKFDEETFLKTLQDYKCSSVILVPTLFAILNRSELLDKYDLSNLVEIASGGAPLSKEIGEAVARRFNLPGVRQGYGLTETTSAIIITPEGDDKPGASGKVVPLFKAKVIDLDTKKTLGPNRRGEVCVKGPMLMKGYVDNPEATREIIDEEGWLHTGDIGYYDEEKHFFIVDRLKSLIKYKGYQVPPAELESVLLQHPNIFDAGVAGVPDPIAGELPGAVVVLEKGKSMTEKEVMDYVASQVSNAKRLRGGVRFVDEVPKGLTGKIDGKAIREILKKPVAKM

[7] = target: T1, Luciferin 4-monooxygenase (Luciola lateralis); test: Inhibition of recombinant firefly luciferase at 0.0001 to 100 uM by […] in presence of varying concentration of ATP; details: Aquatica lateralis
HeLa [8] = test: Induction of SV40 promoter-mediated luciferase gene expression in human HeLa cells after 24 hrs by RT-PCR analysis; format: cell-based; details: Betapolyomavirus macacae
HeLa [9] = test: Induction of SV40 promoter-mediated luciferase gene expression in human HeLa cells at 10 to 100 uM after 24 hrs by RT-PCR analysis; format: cell-based; details: Betapolyomavirus macacae

Structure (SMILES)	GI50 [1]	Activity (HeLa [3])	Activity (HeLa [4])	Activity (HeLa [5])	also measured
C=C(C)/C=C/c1ccc2c(CO)c[nH]c2c1	79 µM				
C=C(C)/C=C/c1ccc2c(C(=O)C(F)(F)F)c[nH]c2c1	39 µM	inactive	Active	Non-toxic	Stability [2]: Stable; inhibition [6]: inactive; inhibition [7]: Active; Activity (HeLa [8]): Dose-dependent effect
C=C(C)/C=C/c1ccc2cc[nH]c2c1	147 µM				
CC(=O)/C=C/c1ccc2c(C(=O)C(F)(F)F)c[nH]c2c1	14 µM				
C=C(C)/C=C/c1ccc2c(C(=O)O)c[nH]c2c1	68 µM	inactive	Active	Non-toxic	
CC(O)/C=C/c1ccc2c(C(=O)C(F)(F)F)c[nH]c2c1 (stereo not given)	8 µM	inactive	Active	Non-toxic	
CC(C)(O)/C=C/c1ccc2c(C(=O)C(F)(F)F)c[nH]c2c1	> 500 µM				
CC(C)CCc1ccc2c(C(=O)O)c[nH]c2c1	> 500 µM				
C=C(C)/C=C/c1ccc2c(C(=O)C(F)(F)F)cn(C)c2c1	> 500 µM				
Oc1ccc(/C=C/c2cc(O)cc(O)c2)cc1					inhibition [6]: Active; inhibition [7]: Active; Activity (HeLa [9]): Active
